Results published in patent publication US7772208B2, “2′,3′-dideoxynucleoside analogues for the treatment or prevention of Flaviviridae infections” (Pharmasset, Inc., priority 2002, dated 2010).
Where a name gives a salt, the structure may show the parent alone.

How the values were obtained:
[1] = molecular target: T1, NS5B enzyme (HCV polymerase, NS5Bt) (Hepatitis C virus genotype 1a, UniProt P27958); test: HCV polymerase (RdRp) inhibition assay; format: biochemical; settings: for inhibition when treated: FIG. 4; for change of inhibition with increase in manganese concentration: FIG. 5
T1 construct: added a methionine and alanine to the N terminus and truncated the C-terminal 21 amino acids, replacing them with a hexahistidine tag; hexahistidine (C); made in house; host or cells: E. coli BL21(DE3)pLysS, plasmid pRSK1 in pET32a
T1 sequence (P27958 2421-2990): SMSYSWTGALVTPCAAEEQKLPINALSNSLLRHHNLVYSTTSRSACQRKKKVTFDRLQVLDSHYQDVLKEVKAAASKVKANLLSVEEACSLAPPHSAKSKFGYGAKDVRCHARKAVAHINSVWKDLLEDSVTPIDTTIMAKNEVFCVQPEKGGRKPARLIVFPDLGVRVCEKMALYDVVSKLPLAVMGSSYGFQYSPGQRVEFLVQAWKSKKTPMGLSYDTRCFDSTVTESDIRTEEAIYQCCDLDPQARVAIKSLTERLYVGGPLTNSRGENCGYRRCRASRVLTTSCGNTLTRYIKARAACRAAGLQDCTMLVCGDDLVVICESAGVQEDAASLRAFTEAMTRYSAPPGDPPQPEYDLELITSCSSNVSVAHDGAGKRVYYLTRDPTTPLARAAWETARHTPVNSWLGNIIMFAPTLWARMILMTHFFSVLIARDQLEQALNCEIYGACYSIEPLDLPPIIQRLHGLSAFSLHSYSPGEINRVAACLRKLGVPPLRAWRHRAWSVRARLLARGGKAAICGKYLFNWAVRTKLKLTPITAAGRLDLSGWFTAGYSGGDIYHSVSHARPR
Text: The HCV NS5B gene was amplified from a genotype 1A, clone, p134/pBRTM 2029-3011 (ΔAvrII). The primers used added a methionine and alanine to the N terminus and truncated the C-terminal 21 amino acids, replacing them with a hexahistidine tag, which allowed increased soluble product in E. coli and metal affinity purification. The PCR product was cloned into the pET32a expression construct (Novagen) at the NcoI and BamHI sites and the resultant plasmid (pRSK1) was sequenced by the Stanford PAN facility using standard methods. […] (DE3)pLysS cells (Novagen) were transformed by pRSK1 and grown at 37° C. to an optical density of 0.1, at which time the cells were switched to room temperature. At an optical density of 0.3-0.5, isopropyl-β-D-thiogalactopyanoside was added to a final concentration of 0.5 mM and the cells were harvested after 6 h. The cell pellet was frozen, thawed and resuspended in buffer containing 50 mM sodium phosphate pH 7.0, 10% glycerol, 0.3 M NaCl, 2 mM β-mercaptoethanol, 0.5% β-octyl-glucoside. The cell extract was sonicated, and cellular debris removed by centrifugation. The extract was incubated batch-wise with Talon metal affinity resin (Clontech), washed extensively with the above buffer, and then poured into a column for a stepwise imidazole elution. The polymerase, referred to as NS5Bt, eluted specifically between 70 mM and 250 mM imidazole and was ˜90% pure.
RdRp assays were a modification of the assays described in Kao et al. (Kao, C, C.; Yang, X.; Kline, A.; Wang, Q. M.; Barket, D.; Heinz, B. A. (2000) J. Virol. 74, 11121-11128). The template used allows for de novo synthesis and has its 3′ termini blocked by puromycin, which largely prevents the high molecular weight product from forming and allows for predominantly 24- and 25-nucleotide products to be seen. Each reaction contained 50 mM Hepes-NaOH pH 8.0, 0.65 μM template, 0.1 μM purified NS5Bt described above, 250 μM GTP, 5 μM UTP, 0.6 μM CTP, and 1 μM [αP32] ATP, 0.5 mM MnCl2, 7 mM MgCl2, 18 mM DTT, and the stated concentration of the analog. Reaction mixes were incubated at 27° C. for 45 min. Reactions were terminated by the addition of ⅕ the volume of 5× proteinase K mix (250 μg proteinase K/ml [Sigma, St Louis, Mo.], 375 mM Hepes-NaOH pH 8, 0.5% SDS, 25 mM EDTA) and incubated for 10 min at 37° C. Reactions were then precipitated with isopropanol, and glycogen as a carrier, and washed twice with 70% ethanol to remove salt. The RNA was resuspended in formamide loading buffer, heated to 65° C. for 3 min and loaded on a 20% acrylamide/7 M urea/TBE denaturing gel and separated by electrophoresis at 50° C. Quantification of bands was performed using Phosphoimager analysis.

HCV protease = settings: SDS-PAGE and autoradiography assay; cited from earlier work

In the case of `Nc1nc(=O)n([C@@H]2CC[C@H](COP(=O)(O)OP(=O)(O)OP(=O)(O)O)O2)cc1F` [β-L-ddFC triphosphate, β-L-2′,3′-Dideoxy-5-fluorocytidine triphosphate, triethylammonium salt], the “inhibition of NS5B enzyme” value ([1]; FIG. 2 and FIG. 3, triphosphate) was “dose-dependent inhibition”.
For `CCCC(=O)c1cc2c(c(O)c1C)C(=O)C(=O)c1c(O)cccc1-2` [Sch 68631], the “activity against HCV protease” value (HCV protease) is given as “micromolar activity”.
For `Nc1ccn([C@@H]2CC[C@H](CO)O2)c(=O)n1` [L-ddC, β-L-2′,3′-dideoxycytidine], the inhibition when treated [1] was “no inhibition” and the “change of inhibition with increase in manganese concentration” value [1] was “not affected”.
For `Nc1nc(=O)n([C@@H]2CC[C@H](CO)O2)cc1F` [L-ddFC, β-L-2′,3′-Dideoxy-5-fluorocytidine], the inhibition when treated [1] was “dose-dependent inhibition” and the “change of inhibition with increase in manganese concentration” value [1] was “increase of inhibition”.
